Measured values: ChEMBL document CHEMBL4828715, “Discovery, Structure-Activity Relationships, and In Vivo Evaluation of Novel Aryl Amides as Brain Penetrant Adaptor Protein 2-Associated Kinase 1 (AAK1) Inhibitors for the Treatment of Neuropathic Pain” (J Med Chem, 2021)
≈ marks a conversion by molar mass, not a printed value. Calls of active or inactive are those of the source. The calls are words filed in the database; no cut-off is given here.

Experiments:
[1] = Permeability of the compound across basolateral to apical membrane in human Caco-2 cells incubated for 2 hrs by LC-MS/MS analysis; format: ADME, cell-based; details: caco-2, 2 h
[2] = Permeability of the compound across apical to basolateral membrane in human Caco-2 cells incubated for 2 hrs by LC-MS/MS analysis
[3] = target: AP2-associated protein kinase 1 (Mus musculus) (UniProt Q3UHJ0); assay: In vivo inhibition of AAK1 in sc dosed C57BL6 mouse assessed as suppression of mu2 phosphorylation in brain lysate by Western blot analysis; format: functional, organism-based
[4] = Metabolic stability in human liver microsomes assessed as parent compound remaining at 0.5 uM incubated for 10 mins in presence of NADPH by LC-MS/MS analysis; format: ADME, Microsome; details: read-out: Stability
[5] = Metabolic stability in mouse liver microsomes assessed as parent compound remaining at 0.5 uM incubated for 10 mins in presence of NADPH by LC-MS/MS analysis; format: ADME, Microsome; details: read-out: Stability
[6] = target: AP2-associated protein kinase 1 (Homo sapiens, UniProt Q2M2I8); assay: Inhibition of human AAK1 expressed in HEK293 cells assessed as suppression of AP2 phosphorylation measured after 3 hrs by Western blot analysis; format: cell-based
[7] = Unbound brain-to-plasma concentration ratio in C57BL6 mouse at 30 mg/kg, sc; format: ADME, organism-based; details: read-out: K(p,uu,brain)
[8] = Aqueous solubility of the compound at pH 7.4; format: physicochemical
[9] = target: BMP-2-inducible protein kinase (Homo sapiens, UniProt Q9NSY1); assay: Inhibition of wild-type human partial length BIKE (S34 to N329 residues) expressed in bacterial expression system assessed as residual binding level at 1 uM by Kinomescan method relative to control
[10] = target: Citron Rho-interacting kinase (Homo sapiens, UniProt O14578); assay: Inhibition of CRIK (unknown origin) assessed as residual binding level at 1 uM by Kinomescan method relative to control
[11] = target: Cyclin-G-associated kinase (Homo sapiens) (UniProt O14976); assay: Inhibition of wild-type human partial length GAK (G13 to Y338 residues) expressed in bacterial expression system assessed as residual binding level at 1 uM by Kinomescan method relative to control
[12] = target: MAP kinase-interacting serine/threonine-protein kinase 1 (Homo sapiens, UniProt Q9BUB5); assay: Inhibition of wild-type human full length MKNK1 (M1 to L424 residues) expressed in mammalian expression system assessed as residual binding level at 1 uM by Kinomescan method relative to control
[13] = target: Phosphatidylinositol 4-phosphate 5-kinase type-1 alpha (Homo sapiens) (UniProt Q99755); assay: Inhibition of wild-type human full length PIP5K1A (M1 to H562 residues) expressed in bacterial expression system assessed as residual binding level at 1 uM by Kinomescan method relative to control
[14] = target: Serine/threonine-protein kinase RIO1 (Homo sapiens) (UniProt Q9BRS2); assay: Inhibition of wild-type human full length RIOK1 (M1 to K568 residues) expressed in bacterial expression system assessed as residual binding level at 1 uM by Kinomescan method relative to control
[15] = target: Serine/threonine-protein kinase RIO2 (Homo sapiens) (UniProt Q9BVS4); assay: Inhibition of wild-type human partial length RIOK2 (M1 to D313 residues) expressed in mammalian expression system assessed as residual binding level at 1 uM by Kinomescan method relative to control
[16] = target: SRSF protein kinase 1 (Homo sapiens) (UniProt Q96SB4); assay: Inhibition of wild-type human full length SRPK1 (M1 to S655 residues) expressed in bacterial expression system assessed as residual binding level at 1 uM by Kinomescan method relative to control
[17] = target: Alpha-2A adrenergic receptor (Homo sapiens, UniProt P08913); assay: Inhibition of alpha 2A adrenergic receptor (unknown origin)
[18] = target: Alpha-2C adrenergic receptor (Homo sapiens, UniProt P18825); assay: Inhibition of alpha 2C adrenergic receptor (unknown origin)
[19] = target: Kappa-type opioid receptor (Homo sapiens, UniProt P41145); assay: Inhibition of kappa opioid receptor (unknown origin)
[20] = target: Sodium-dependent serotonin transporter (Homo sapiens, UniProt P31645); assay: Inhibition of SERT (unknown origin)
[21] = target: AP2-associated protein kinase 1 (Mus musculus) (UniProt Q3UHJ0); assay: In vivo inhibition of AAK1 in C57BL6 mouse assessed as suppression of mu2 phosphorylation in brain lysate at 3 mg/kg, sc measured after 30 mins by Western blot analysis relative to control; format: functional, organism-based
[22] = target: AP2-associated protein kinase 1 (Mus musculus) (UniProt Q3UHJ0); assay: In vivo inhibition of AAK1 in C57BL6 mouse assessed as suppression of mu2 phosphorylation in brain lysate at 60 mg/kg, sc measured after 30 mins by Western blot analysis relative to control; format: functional, organism-based
[23] = Drug concentration in plasma of C57BL6 mouse at 60 mg/kg, sc; format: ADME, organism-based; details: in vivo
[24] = target: AP2-associated protein kinase 1 (Mus musculus, UniProt Q3UHJ0); assay: In vivo inhibition of AAK1 in C57BL6 mouse assessed as suppression of mu2 phosphorylation in brain lysate by Western blot analysis; format: functional, organism-based
Mus musculus [25] = assay: Antinociceptive activity against formalin-induced nociceptive behavior in C57BL6 mouse assessed as reduction in phase 2 hind paw licking/biting at 10 mg/kg, sc administered 60 mins prior to formalin challenge by formalin test; format: functional, organism-based
Mus musculus [26] = assay: Antinociceptive activity against formalin-induced nociceptive behavior in C57BL6 mouse assessed as reduction in time spent phase 1 hind paw licking/biting at 30 mg/kg, sc administered 60 mins prior to formalin challenge by formalin test; format: functional; details: 1 h
Rattus norvegicus [27] = assay: Antinociceptive activity in Sprague-Dawley rat model of chronic constriction injury-induced neuropathic pain assessed as reduction in paw withdrawal latency at 60 mg/kg, sc by Von Frey test; format: functional, organism-based
Rattus norvegicus [28] = assay: Reversal of chronic constriction injury-induced cold allodynia in Sprague-Dawley rat model of neuropathic pain at 60 mg/kg, sc measured up to 180 mins relative to control; format: functional; details: time min <=180
[29] = Unbound brain-to-plasma concentration ratio in Sprague-Dawley rat model of chronic constriction injury-induced neuropathic pain at 60 mg/kg, sc measured after 240 mins; format: ADME, organism-based; details: read-out: K(p,uu,brain)
Rattus norvegicus [30] = assay: Antinociceptive activity in Sprague-Dawley rat model of chronic constriction injury-induced neuropathic pain assessed as reduction in thermal hyperalgesia 3 mg/kg, sc by Von Frey test relative to control; format: functional; parameters: scale not given: the % may be the effect or the level left
[31] = Drug concentration in plasma of Sprague-Dawley rat model of chronic constriction injury-induced neuropathic pain at 1 mg/kg, sc; format: ADME, organism-based; details: in vivo
[32] = Drug concentration in plasma of Sprague-Dawley rat model of chronic constriction injury-induced neuropathic pain at 3 mg/kg, sc; format: ADME, organism-based; details: in vivo
[33] = Drug concentration in plasma of Sprague-Dawley rat model of chronic constriction injury-induced neuropathic pain at 30 mg/kg, sc; format: ADME, organism-based; details: in vivo
[34] = Drug concentration in brain of Sprague-Dawley rat model of chronic constriction injury-induced neuropathic pain at 3 mg/kg, sc; format: ADME, organism-based; details: in vivo, read-out: Ct
[35] = Drug concentration in brain of Sprague-Dawley rat model of chronic constriction injury-induced neuropathic pain at 10 mg/kg, sc; format: ADME, organism-based; details: in vivo, read-out: Ct

Chain of AP2-associated protein kinase 1 (Mus musculus) (Q3UHJ0 whole entry, looked up): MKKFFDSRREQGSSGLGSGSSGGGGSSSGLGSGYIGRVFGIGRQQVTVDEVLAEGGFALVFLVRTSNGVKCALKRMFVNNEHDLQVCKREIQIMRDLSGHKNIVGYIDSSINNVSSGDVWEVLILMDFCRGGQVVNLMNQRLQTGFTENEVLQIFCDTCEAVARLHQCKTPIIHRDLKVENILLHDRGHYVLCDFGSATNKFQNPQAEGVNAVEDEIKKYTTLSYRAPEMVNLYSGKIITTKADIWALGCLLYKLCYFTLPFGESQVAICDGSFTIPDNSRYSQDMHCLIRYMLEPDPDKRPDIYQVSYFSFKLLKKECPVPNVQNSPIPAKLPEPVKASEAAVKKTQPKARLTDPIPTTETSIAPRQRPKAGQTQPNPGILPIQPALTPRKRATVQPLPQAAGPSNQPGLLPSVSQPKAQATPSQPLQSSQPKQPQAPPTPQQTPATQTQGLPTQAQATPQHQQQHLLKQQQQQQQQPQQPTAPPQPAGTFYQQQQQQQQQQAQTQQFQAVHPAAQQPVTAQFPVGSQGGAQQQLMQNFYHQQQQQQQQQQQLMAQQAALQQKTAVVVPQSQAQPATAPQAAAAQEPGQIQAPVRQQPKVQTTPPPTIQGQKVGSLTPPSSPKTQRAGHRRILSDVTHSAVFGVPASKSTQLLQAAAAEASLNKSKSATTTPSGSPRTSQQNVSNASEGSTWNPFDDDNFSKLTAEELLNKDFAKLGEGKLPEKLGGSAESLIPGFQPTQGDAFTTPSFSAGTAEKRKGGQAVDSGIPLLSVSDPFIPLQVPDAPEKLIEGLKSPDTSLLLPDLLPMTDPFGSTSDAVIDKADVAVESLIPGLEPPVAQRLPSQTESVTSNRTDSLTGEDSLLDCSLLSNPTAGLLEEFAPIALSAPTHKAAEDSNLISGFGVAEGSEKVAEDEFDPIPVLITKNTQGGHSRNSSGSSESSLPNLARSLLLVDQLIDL
Chain of Cyclin-G-associated kinase (Homo sapiens) (O14976 whole entry, the tested form may be a part): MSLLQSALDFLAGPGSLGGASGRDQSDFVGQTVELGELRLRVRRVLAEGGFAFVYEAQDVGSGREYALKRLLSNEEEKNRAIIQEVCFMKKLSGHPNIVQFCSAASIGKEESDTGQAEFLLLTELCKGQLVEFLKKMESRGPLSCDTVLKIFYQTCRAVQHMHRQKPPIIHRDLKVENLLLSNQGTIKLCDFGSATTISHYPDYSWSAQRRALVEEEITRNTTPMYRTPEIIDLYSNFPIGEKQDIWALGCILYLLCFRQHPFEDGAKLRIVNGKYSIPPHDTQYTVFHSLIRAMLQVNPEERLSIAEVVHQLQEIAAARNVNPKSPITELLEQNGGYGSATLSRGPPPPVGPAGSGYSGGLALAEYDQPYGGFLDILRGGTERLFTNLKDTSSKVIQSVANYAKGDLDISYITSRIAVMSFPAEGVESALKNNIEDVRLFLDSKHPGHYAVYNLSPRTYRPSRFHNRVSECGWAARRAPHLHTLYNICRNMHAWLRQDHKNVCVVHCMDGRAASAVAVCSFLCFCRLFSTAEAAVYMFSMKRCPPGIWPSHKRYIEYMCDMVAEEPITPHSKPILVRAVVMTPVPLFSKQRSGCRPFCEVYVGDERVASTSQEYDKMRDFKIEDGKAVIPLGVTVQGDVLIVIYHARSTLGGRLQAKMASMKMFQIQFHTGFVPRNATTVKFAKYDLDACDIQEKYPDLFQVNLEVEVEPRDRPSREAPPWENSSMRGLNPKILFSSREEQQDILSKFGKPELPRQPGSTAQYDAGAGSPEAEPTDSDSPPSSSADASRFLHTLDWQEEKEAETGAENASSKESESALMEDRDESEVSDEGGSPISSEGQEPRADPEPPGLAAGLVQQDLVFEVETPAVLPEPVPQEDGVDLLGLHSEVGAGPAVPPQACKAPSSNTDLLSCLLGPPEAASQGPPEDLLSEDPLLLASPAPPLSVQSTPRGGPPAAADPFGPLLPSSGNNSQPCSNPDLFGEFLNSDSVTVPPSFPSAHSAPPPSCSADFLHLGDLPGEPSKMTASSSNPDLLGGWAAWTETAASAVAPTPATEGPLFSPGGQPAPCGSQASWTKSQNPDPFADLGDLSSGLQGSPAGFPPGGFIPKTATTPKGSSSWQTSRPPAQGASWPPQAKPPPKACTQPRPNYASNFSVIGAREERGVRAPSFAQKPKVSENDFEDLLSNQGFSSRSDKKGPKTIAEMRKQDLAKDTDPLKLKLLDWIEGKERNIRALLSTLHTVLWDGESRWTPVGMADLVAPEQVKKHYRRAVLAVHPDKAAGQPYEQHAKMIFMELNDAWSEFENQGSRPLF
Chain of Alpha-2A adrenergic receptor (P08913 whole entry): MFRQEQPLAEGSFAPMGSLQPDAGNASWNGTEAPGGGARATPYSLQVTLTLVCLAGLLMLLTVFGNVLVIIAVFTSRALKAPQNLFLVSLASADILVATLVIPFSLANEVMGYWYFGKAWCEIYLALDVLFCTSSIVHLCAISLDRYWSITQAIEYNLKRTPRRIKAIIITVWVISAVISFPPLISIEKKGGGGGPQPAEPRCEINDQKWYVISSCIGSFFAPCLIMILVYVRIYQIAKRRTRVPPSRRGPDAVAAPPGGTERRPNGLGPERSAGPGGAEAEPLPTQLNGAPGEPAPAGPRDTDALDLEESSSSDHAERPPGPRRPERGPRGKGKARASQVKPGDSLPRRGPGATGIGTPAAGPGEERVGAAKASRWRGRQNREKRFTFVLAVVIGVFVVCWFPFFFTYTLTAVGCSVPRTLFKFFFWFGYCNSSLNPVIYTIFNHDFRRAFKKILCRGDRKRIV
Chain of Sodium-dependent serotonin transporter (P31645 whole entry): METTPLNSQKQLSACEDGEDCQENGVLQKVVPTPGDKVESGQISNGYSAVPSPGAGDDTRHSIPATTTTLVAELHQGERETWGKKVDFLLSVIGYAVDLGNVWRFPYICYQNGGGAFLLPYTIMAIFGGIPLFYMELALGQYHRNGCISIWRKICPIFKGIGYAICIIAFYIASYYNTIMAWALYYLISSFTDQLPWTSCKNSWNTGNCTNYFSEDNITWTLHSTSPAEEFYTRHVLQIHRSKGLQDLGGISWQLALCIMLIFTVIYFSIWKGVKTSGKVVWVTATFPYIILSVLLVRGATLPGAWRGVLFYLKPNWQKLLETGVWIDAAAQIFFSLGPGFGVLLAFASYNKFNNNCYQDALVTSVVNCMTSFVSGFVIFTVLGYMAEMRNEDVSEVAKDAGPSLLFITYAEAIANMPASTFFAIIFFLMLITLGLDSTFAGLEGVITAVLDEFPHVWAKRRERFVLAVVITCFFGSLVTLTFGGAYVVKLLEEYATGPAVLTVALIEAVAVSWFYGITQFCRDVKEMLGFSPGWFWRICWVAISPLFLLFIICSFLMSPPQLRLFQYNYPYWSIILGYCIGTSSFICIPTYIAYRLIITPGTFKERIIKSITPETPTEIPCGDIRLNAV
Chain of MAP kinase-interacting serine/threonine-protein kinase 1 (Q9BUB5 whole entry, looked up, the tested form may be a part): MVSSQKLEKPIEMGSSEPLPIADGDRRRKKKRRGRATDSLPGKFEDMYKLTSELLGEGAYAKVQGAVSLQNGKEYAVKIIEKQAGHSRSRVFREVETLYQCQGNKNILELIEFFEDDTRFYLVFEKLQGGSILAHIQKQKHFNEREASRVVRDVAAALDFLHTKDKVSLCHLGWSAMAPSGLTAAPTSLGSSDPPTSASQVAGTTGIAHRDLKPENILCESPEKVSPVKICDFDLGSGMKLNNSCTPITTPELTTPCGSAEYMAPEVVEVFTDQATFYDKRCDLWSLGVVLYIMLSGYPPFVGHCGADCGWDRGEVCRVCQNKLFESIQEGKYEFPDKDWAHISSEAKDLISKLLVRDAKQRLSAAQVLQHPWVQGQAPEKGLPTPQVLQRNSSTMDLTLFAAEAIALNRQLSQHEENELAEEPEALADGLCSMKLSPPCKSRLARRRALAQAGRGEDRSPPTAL
Chain of BMP-2-inducible protein kinase (Q9NSY1 whole entry, looked up, the tested form may be a part): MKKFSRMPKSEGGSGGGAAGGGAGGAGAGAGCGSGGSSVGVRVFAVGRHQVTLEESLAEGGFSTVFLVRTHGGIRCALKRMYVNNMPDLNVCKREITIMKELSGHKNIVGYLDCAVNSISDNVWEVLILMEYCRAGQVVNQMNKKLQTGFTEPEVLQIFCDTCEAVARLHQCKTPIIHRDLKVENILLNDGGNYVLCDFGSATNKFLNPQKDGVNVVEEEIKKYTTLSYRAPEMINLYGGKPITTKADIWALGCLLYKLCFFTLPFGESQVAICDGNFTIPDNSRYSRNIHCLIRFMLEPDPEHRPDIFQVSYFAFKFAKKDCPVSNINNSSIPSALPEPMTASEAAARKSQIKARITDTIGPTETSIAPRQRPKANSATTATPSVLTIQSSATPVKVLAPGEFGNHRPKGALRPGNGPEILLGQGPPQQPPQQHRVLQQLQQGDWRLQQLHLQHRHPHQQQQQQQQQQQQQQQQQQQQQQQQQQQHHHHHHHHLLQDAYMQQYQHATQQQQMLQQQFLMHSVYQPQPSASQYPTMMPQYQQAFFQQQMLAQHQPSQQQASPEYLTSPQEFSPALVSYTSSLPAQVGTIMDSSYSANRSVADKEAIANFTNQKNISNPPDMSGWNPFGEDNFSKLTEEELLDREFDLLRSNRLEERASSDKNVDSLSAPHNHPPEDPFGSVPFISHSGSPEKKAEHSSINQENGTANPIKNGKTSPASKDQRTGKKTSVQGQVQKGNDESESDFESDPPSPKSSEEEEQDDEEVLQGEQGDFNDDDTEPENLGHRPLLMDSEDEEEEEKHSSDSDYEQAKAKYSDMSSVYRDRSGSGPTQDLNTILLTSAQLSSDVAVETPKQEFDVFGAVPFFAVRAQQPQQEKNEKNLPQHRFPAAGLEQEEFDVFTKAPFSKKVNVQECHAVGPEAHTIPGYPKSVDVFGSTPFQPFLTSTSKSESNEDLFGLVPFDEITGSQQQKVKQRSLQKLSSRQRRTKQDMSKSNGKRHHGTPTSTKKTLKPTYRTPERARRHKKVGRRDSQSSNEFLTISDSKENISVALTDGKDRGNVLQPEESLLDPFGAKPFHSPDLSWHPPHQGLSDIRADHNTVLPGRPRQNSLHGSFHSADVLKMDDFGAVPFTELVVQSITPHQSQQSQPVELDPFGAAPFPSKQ
Chain of AP2-associated protein kinase 1 (Mus musculus, UniProt Q3UHJ0) (Q3UHJ0 whole entry): as the sequence (Q3UHJ0 whole entry, looked up) above

In the case of `CC(C)C[C@@H](N)C(=O)Nc1ccc(-c2cnco2)c(OC(F)F)c1`, the permeability [1] is reported as 113 10^-6 cm/s, the Papp A→B at 2 h [2] is reported as 12.9 ×10⁻⁶ cm/s and the ED50 [3] is reported as 6 mg/kg. The remaining at 10 min, 0.5 µM [4] was 84%, the remaining at 10 min, 0.5 µM [5] was 46% and the IC50 [6] was 0.051 µM. It also gave a Kp uu [7] of 0.71, a solubility [8] of 600 µg/mL (≈ 1770 µM) and an Activity [9] of 6.2%. The Activity [10] was 0.7%, the Activity [11] was 21% and the Activity [12] was 8.4%. The Activity [13] was 31%, the Activity [14] was 7.6% and the Activity [15] was 3.8%. For the same compound, the Activity [16] was 12%, the IC50 [17] was over 30 µM and the IC50 [18] was over 30 µM. The IC50 [19] was over 30 µM, the IC50 [20] was over 30 µM and the inhibition [21] was 13%. It also gave an inhibition [22] of 80%, a concentration [23] of 77 µM and an EC50 [24] of 8.3 µM. For the same compound, the Activity (Mus musculus [25]) was “Active”, the Time (Mus musculus [26]) was 18 s and the Activity (Rattus norvegicus [27]) was “Active”. For the same compound, the Activity (Rattus norvegicus [28]) was 49%, the Kp uu at 4 h [29] was 0.7 and the Activity (Rattus norvegicus [30]) was 35%. The concentration [31] was 0.4 µM, the concentration [32] was 1.1 µM and the concentration [33] was 52 µM. It also gave a concentration [34] of 0.9 µM and a concentration [35] of 7 µM.
